Values after ≈ are worked out from the molar mass of the structure shown.
Columns and labels:
Type in all cases: cell-based
[1] = test system: co-culture of Aspergillus fumigatus + Candida albicans spores (1:1); assay: Broth microdilution MIC assay, co-culture
Procedure: (§1) Broth Microdilution Minimal Inhibitory Concentration (MIC) assays were performed to obtain the MIC values for Itraconazole and Ketoconazole with an antibiotic (Vancomycin or Tobramycin or Amikacin) against the two fungal strains.
(§2) Fungal strains: Aspergillus fumigatus MYA3626 and Candida albicans ATCC 90028 strains were obtained from the American Type Culture Collection (Manassas, Va.). The strains were maintained as a frozen glycerol stocks at −80° C. The fungal strains were prepared by thawing a glycerol stock, streaking and growing onto Sabouraud's Dextrose Agar (SDA) plates, overnight at 35±2° C. in aerobic conditions and used for the assay.
(§3) Antifungal agents: Itraconazole (Cat #16657, Lot #087K1322), Ketoconazole (Cat # K1003, Lot # SLBR1290V). Stocks were prepared in appropriate solvents following the CLSI guidelines. See, for example, Reference method for broth dilution antifungal susceptibility testing of filamentous fungi, approved standard, 2nd ed. CLSI document M38-A2, vol. 28. CLSI, Wayne, Pa. (2008).
(§4) The completely synthetic medium RPMI-1640 (with glutamine, without bicarbonate, and with phenol red as a pH indicator) was buffered with 0.165 mol/L MOPS (3-[N-morpholino] propanesulfonic acid) buffer was used as the growth medium for the fungal strains. Overnight cultures of the fungal strains were grown on Difco™ Sabouraud's Dextrose Agar (SDA) plates at 35° C. To induce conidium and sporangiospore formation, the culture plates were transferred to incubator and grown for 5-7 days 30° C. or until good sporulation was obtained. Approximately, 10 mL of 0.85% saline containing 0.01% of Tween 80 was used to poured on to the agar plate containing conidia or sporangiospores and hyphal fragments. The suspension containing conidia or sporangiospores and hyphal fragments was aspirated and transferred to a sterile tube. This mixture was filtered to separate the spores from the vegetative cells of the fungi. The supernatant containing only fungal spores was used for all the assays. Fungal spore inoculum was prepared in RPMI-1640 (with glutamine, without bicarbonate, and with phenol red as a pH indicator) was buffered with 0.165 mol/L MOPS (3-[N-morpholino] propanesulfonic acid) buffer to a final density of 10^6 CFU/mL using a hemocytometer.
(§5) Each MIC assay included 11 2-fold serial dilutions of the antifungal agents. Test concentrations for the test articles were tested at the following concentrations: 64 μg/mL, 32 μg/mL, 16 μg/mL, 8 μg/mL, 4 μg/mL, 2 μg/mL, 1 μg/mL, 0.5 μg/mL, 0.25 μg/mL, 0.125 μg/mL, and 0.0625 μg/mL. Broth microdilution assays were performed according to the procedures detailed in CLSI document M38-A2 (CLSI, 2008). Briefly, 2× stock solutions of test articles were prepared at 128 μg/mL. A two-fold serial dilution of the stock solution were performed. Diluted stock solutions of the fungal spores were adjusted (to be equivalent to 10^6 CFU/mL). 1× final concentration of the antifungals was obtained when they were combined with the fungal spore broth in the microtiter plate. Plates were incubated for 3-5 days at 35±2° C. in an ambient air incubator. MIC values recorded are the minimum concentration of the test articles that inhibits growth as observed by unaided eye. The MIC values was expressed in μg/mL. The assay was carried out in duplicates.

[2] = test system: Aspergillus fumigatus MYA3626 spores; assay: Checkerboard synergy assay; conditions: MYA3626SPORES, FIG. 5 synergy data, agent alone
Procedure: (§6) This study evaluated the synergistic activity of 2 antifungal agents (Itraconazole and Ketoconazole) with an antibiotic (Vancomycin or Tobramycin or Amikacin) against the spores of 2 fungi; Aspergillus fumigatus MYA3626 and Candida albicans ATCC 90028; individually as well as in co-cultivation (Aspergillus fumigatus+Candida albicans). Synergy testing was carried out as per checkerboard assay by Victor Lorian methodology. See, for example, Lorian, V. Antibiotics in Laboratory Medicine. Edition 5: (2005).
(§7) In vitro activity of the test articles were tested in combination by the Checkerboard assay. See, for example, Lorian, V. Antibiotics in Laboratory Medicine. Edition 5: (2005). The assay was carried out in duplicates. The starting concentrations for the test articles was determined as per the MIC data. Two-fold serial dilutions of 8×MIC for the antifungal agents; Itraconazole and Ketoconazole was performed separately. When Itraconazole and Ketoconazole were combined in a microtiter plate, the concentration of both agents was 2×MIC. 1× final concentration of the antifungal agents were obtained when they were combined with the 10^6 CFU/mL fungal spore inoculum in the microtiter plate. The plates were incubated at 35° C. for 3-5 days. The assay plates were visually inspected to confirm the MIC endpoint and used to calculate the Fractional Inhibitory Concentration (FIC) Index to determine any synergistic interaction.
(§8) The FIC Index was calculated as follows:
(§9) FIC Index=FICA+FICB • where, A and B are the MIC of the test article and an antifungal in combination (in a single well). MICA and MICB are the MICs of each antifungal individually.
(§10) FIC Index value was used to categorize the interaction, as follows:
(§11) To determine if Itraconazole and Ketoconazole combination had synergistic antifungal activity, a synergy assay was carried out with Itraconazole (1 μg/mL, 0.5 μg/mL, 0.25 μg/mL, 0.125 μg/mL, 0.0625 μg/mL, 0.0312 μg/mL, and 0.0156 μg/mL) and Ketoconazole (8 μg/mL, 4 μg/mL, 2 μg/mL, 1 μg/mL, 0.5 μg/mL, 0.25 μg/mL, 0.125 μg/mL, 0.0625 μg/mL, 0.0312 μg/mL, 0.0156 μg/mL and 0.0078 μg/mL) against Aspergillus fumigatus alone, Candida albicans alone, and against Aspergillus fumigatus+Candida albicans co-culture.

[3] = test system: Candida albicans ATCC 90028 spores; assay: Checkerboard synergy assay; conditions: ATCC90028, FIG. 6 synergy data, agent alone
Procedure: as §6, §7, §8, §9, §10, §11

[4] = test system: co-culture of Aspergillus fumigatus + Candida albicans spores (1:1); assay: Checkerboard synergy assay, co-culture; conditions: FIG. 7 synergy data, agent alone
Procedure: as §6
as §7, with “The assay plates were visually inspected to confirm the MIC endpoint and used to calculate the Fractional Inhibitory Concentration (FIC) Index to determine any synergistic interaction.” left out
The FIC Index was calculated as follows: […]

[5] = test system: Aspergillus fumigatus MYA3626 spores; assay: Broth microdilution MIC assay; conditions: MYA3626SPORES
Procedure: as §1, §2, §3, §4, §5

[6] = test system: Candida albicans ATCC 90028 spores; assay: Broth microdilution MIC assay; conditions: Candida albicans alone
Procedure: as §1, §2, §3, §4, §5

[7] = test system: Candida albicans; assay: Culture and sensitivity, Patient 7; conditions: culture from Patient 7
Excerpt: (§12) The patient underwent the standard workup for CRS, sleep disorder, and nasal obstruction, plus our diagnostic skin test and sinus CT scan.

[8] = test system: S. aureus, a gram negative bacteria; assay: Culture and sensitivity, Patient 7; conditions: culture from Patient 7
Excerpt: as §12

[9] = Aspergillus fumigatus, Table 3, read-out: MIC
[10] = Aspergillus fumigatus, Table 4, repeated MIC study, agent alone, read-out: MIC
[11] = Table 3, Aspergillus fumigatus alone, 10^6 CFU/mL spores, 3-5 days at 35° C.
[12] = Table 4, repeated MIC study, Aspergillus fumigatus alone
[13] = ATCC90028, Table 3, 10^6 CFU/mL spores, 3-5 days at 35° C., read-out: MIC

MIC [1, 9]	MIC [1, 10]	MIC ([1]; Table 4, repeated MIC study, agent alone, listed as Itraconazone)	MIC [2]	MIC [3]	MIC [4]	MIC [5, 11]	MIC [5, 12]	MIC [6, 13]	MIC ([6]; Table 4, repeated MIC study)	Structure (SMILES)	Sensitivity of cultured Candida albicans [7]	Sensitivity of cultured bacteria [8]
0.5 µg/mL (≈ 0.709 µM)	1 µg/mL (≈ 1.42 µM)	1 µg/mL (≈ 1.42 µM)	> 0.5 µg/mL	> 0.0312 µg/mL	> 0.5 µg/mL	0.5 µg/mL (≈ 0.709 µM)	1 µg/mL (≈ 1.42 µM)	0.06 µg/mL (≈ 0.085 µM)	0.06 µg/mL (≈ 0.085 µM)	CCC(C)n1ncn(-c2ccc(N3CCN(c4ccc(OCC5COC(Cn6cncn6)(c6ccc(Cl)cc6Cl)O5)cc4)CC3)cc2)c1=O (stereo not drawn) [Itraconazole]		
16 µg/mL (≈ 30.1 µM)	8 µg/mL (≈ 15.1 µM)		> 4 µg/mL	> 0.0312 µg/mL	> 4 µg/mL	16 µg/mL (≈ 30.1 µM)	8 µg/mL (≈ 15.1 µM)	0.06 µg/mL (≈ 0.113 µM)	0.06 µg/mL (≈ 0.113 µM)	CC(=O)N1CCN(c2ccc(OCC3COC(Cn4ccnc4)(c4ccc(Cl)cc4Cl)O3)cc2)CC1 (stereo not drawn) [Ketoconazole]	sensitive	
										NC[C@H]1O[C@H](O[C@H]2[C@H](O)[C@@H](O[C@H]3O[C@H](CO)[C@@H](O)[C@H](N)[C@H]3O)[C@H](N)C[C@@H]2N)[C@H](N)C[C@@H]1O [tobramycin]		sensitive

— patent US20180050033A1, “ANTIFUNGAL TREATMENT OF RHEUMATOID ARTHRITIS” (Gerbe Labs Inc., priority 2016, published 2018)
